Experimental data published in patent US12033725B2, “Antimicrobial peptides and related methods” (GEORGE MASON UNIVERSITY, priority 2021, dated 2024).
Values after ≈ are worked out from the molar mass of the structure shown. “Also recorded” adds a separate entry of the source. Like-named read-outs stand apart in the source and are kept apart here. Bridge positions count the residues as written; N and C are the ends. Ends that are not written are not given here. Peptide text beside a SMILES is read from it.

What was measured:
human red blood cells = tested on: human red blood cells
Experimental: To measure the hemolytic activity of peptides, 2% human red blood cells were added to various dilutions of peptide reconstituted in PBS in a sterile U-bottom polystyrene 96 well plate (Dean et al., 2011). The commercially obtained, deidentified human RBCs (BIOIVT Westbury, NY) were prepared as follows: 1 mL of K2EDTA whole blood from a healthy donor was centrifuged at 1,600 g for 10 min and plasma was discarded. The remaining RBCs were washed 4 times with 1 ml 1×PBS (HyClone), then the pallet after the last wash was resuspended with 750 ul of 1×PBS. 2% RBCs suspension was prepared by adding 200 ul of washed cells to 9.8 mL of 1×PBS. […] of 2% RBCs were added to each well (n=3) containing diluted peptides resulting in final peptide concentration of 100, 10, and 1 μg/ml. 2% RBCs with 1×PBS alone served as the negative control (No peptide), and 2% RBC in deionized water as the positive control, leading to full lysis. The plate was incubated for 1 h at 37 C and then centrifuged at 1,000 rpm for 2 min. The supernatant was transferred to a fresh regular 96 well plate and read at OD540 as previously reported (Dean et al., 2011). Student's t-test was used to determine whether points were statistically significant.

E. coli 4157 [1] = experiment: Antibacterial screening at 100 μg/ml; type: cell-based, Escherichia coli; settings: peptide 100 μg/ml
Experimental: (§1) Staphylococcus aureus ATCC 33592 (MDR) and BAA-1718, E. coli ATCC 51659 (MDR) and 4,157 were purchased from the American Type Culture Collection (Manassas, VA, United States). All strains are reference strains. Bacteria were grown in Tryptic Soy Broth (BD 211825), except E. coli 4157 which was grown in Nutrient Broth (Difco 234000), overnight in a shaking incubator (37 C). Bacteria were aliquoted, mixed with glycerol (final concentration of 20% of glycerol) and frozen at −80 C and enumerated via serial dilution and plating prior to experimentation.
(§2) The antibacterial screening test of the peptides (n=3) was first determined at a final peptide concentration of 100 μg/ml and a final bacterial concentration of 5×10^5 CFU/mL in Difco Mueller Hinton Broth (BD 275730) in a 96 well plate. The plate was incubated for 16-20 h at 37 C and then read on a spectrophotometer at OD600 nm. […] Wells containing medium only were used as sterility control, in the wells around the edge of the plates. LL-37 was used as a control in the first run of experiments against the MDR bacterial strains (Turner et al., 1998). […] The sequence of BF-CATH was derived from DBAASP database listed as cathelicidin-BF-34 with the following sequence: […]

E. coli O157:H7 51659 [2] = experiment: Antibacterial screening at 100 μg/ml; type: cell-based, Escherichia coli; settings: for bactericidal activity: 100 μg/ml, MDR E. coli
Experimental: as §1, §2

E. coli 4157 [3] = type: cell-based, Escherichia coli
Experimental: as §1
(§3) The full range MIC activity testing of the peptides was then determined as previously reported using the Mueller Hinton Broth (BD 275730) in a 96 well plate following the CLSI protocol (Wiegand et al., 2008). Enumerated bacteria were diluted in MHB and 50 ul of 1×10^6 CFU/mL (5×10^4 CFU) was added to each well with 50 ul of a decreasing series of twofold peptide concentration. The plate was incubated for 16-20 h at 37 C and then read on a spectrophotometer at OD600 nm.

S. aureus 33592 = type: cell-based, Staphylococcus aureus; settings: MDR S. aureus (MRSA) 33592, Mueller Hinton Broth
Experimental: as §1, §3

S. aureus BAA-1718 = type: cell-based, Staphylococcus aureus; settings: antibiotic susceptible S. aureus BAA-1718, Mueller Hinton Broth
Experimental: as §1, §3

S. aureus MRSA 33592 [4] = type: cell-based, Staphylococcus aureus; settings: low salt, 10 mM sodium phosphate, 3 h
Experimental: as §1
The antimicrobial activity of the PHNX peptides and LL-37 (AnaSpec 61302) against bacteria was determined as previously described (Barksdale et al., 2016, 2017). Briefly, 1×10^5 CFU per well of bacteria were incubated with different peptide concentrations (n=3) in a 50-ul solution of 10 mM sodium phosphate buffer (3 h, 37 C). Serial dilutions were then prepared in 1× Dulbecco's PBS and 8 ul of each dilution was spotted in triplicate on Tryptic Soy Agar plates, which were incubated (37 C, 24 h) and CFUs were counted (Barksdale et al., 2016, 2017). Bacterial survival at each peptide concentration was calculated based on the ratio of the number of colonies on each experimental plate and the average number of colonies observed for assay cultures lacking peptide. The peptide concentration required to kill 50% of the viable bacteria in the assay cultures (EC5O) was determined by plotting percent survival as a function of the log of peptide concentration (log μg/ml) and fitting the data using GraphPad Prism 6 (GraphPad Software Inc., San Diego, CA, United States). For the purpose of graphing, samples that had no peptide (0 μg/ml) are plotted at 1×10^−7 μg/ml peptide. EC50 values were determined by fitting the data from the antimicrobial assays to a standard sigmoidal dose-response curve. […] Wells containing only 10 mM sodium phosphate buffer were used as sterility control.

E. coli O157:H7 51659 [5] = experiment: EC50 antimicrobial activity assay (low salt, 10 mM sodium phosphate); type: cell-based, Escherichia coli; settings: MDR E. coli, 3 h
Experimental: as §1
The antimicrobial activity of the PHNX peptides and LL-37 (AnaSpec 61302) against bacteria was determined as previously described (Barksdale et al., 2016, 2017). […] Serial dilutions were then prepared in 1× Dulbecco's PBS and 8 ul of each dilution was spotted in triplicate on Tryptic Soy Agar plates, which were incubated (37 C, 24 h) and CFUs were counted (Barksdale et al., 2016, 2017). Bacterial survival at each peptide concentration was calculated based on the ratio of the number of colonies on each experimental plate and the average number of colonies observed for assay cultures lacking peptide. […] EC50 values were determined by fitting the data from the antimicrobial assays to a standard sigmoidal dose-response curve. […]

MDR E. coli 51659 = type: cell-based, Escherichia coli; settings: MDR E. coli O157:H7 51659, Mueller Hinton Broth (high salt)
Experimental: as §1, §3

E. coli ATCC 25922 = E. coli ATCC 25922 (Wang et al., 2008); cited from earlier work
S. aureus MRSA 33592 [6] = experiment: Antibacterial screening at 100 μg/ml; type: cell-based, Staphylococcus aureus; settings: MDR S. aureus
Experimental: as §1, §2

[7] = peptide 1 μg/ml, 2% human RBCs (EDTA), 1 h

For `CC[C@H](C)[C@H](NC(=O)[C@H](CCCCN)NC(=O)[C@H](CCC(=O)O)NC(=O)[C@H](CCCCN)NC(=O)[C@H](CO)NC(=O)[C@H](CCCCN)NC(=O)[C@H](CCCNC(=N)N)NC(=O)[C@H](Cc1ccccc1)NC(=O)[C@H](Cc1ccccc1)NC(=O)[C@H](CC(=O)O)NC(=O)CNC(=O)[C@H](CC(C)C)NC(=O)[C@@H](N)CC(C)C)C(=O)NCC(=O)N[C@@H](CCCCN)C(=O)N[C@@H](CCC(=O)O)C(=O)N[C@@H](Cc1ccccc1)C(=O)N[C@@H](CCCCN)C(=O)N[C@@H](CCCNC(=N)N)C(=O)N[C@H](C(=O)N[C@H](C(=O)N[C@@H](CCC(N)=O)C(=O)N[C@@H](CCCNC(=N)N)C(=O)N[C@H](C(=O)N[C@@H](CCCCN)C(=O)N[C@@H](CC(=O)O)C(=O)N[C@@H](Cc1ccccc1)C(=O)N[C@@H](CC(C)C)C(=O)N[C@@H](CCCNC(=N)N)C(=O)N[C@@H](CC(N)=O)C(=O)N[C@@H](CC(C)C)C(=O)N[C@H](C(=O)N1CCC[C@H]1C(=O)N[C@@H](CCCNC(=N)N)C(=O)N[C@H](C(=O)N[C@@H](CCC(=O)O)C(=O)N[C@@H](CO)C(=O)O)[C@@H](C)O)C(C)C)[C@@H](C)CC)C(C)C)[C@@H](C)CC` [LL-37, reference compound], the hemolysis (human red blood cells; [7]) was “negligible hemolysis” and the hemolysis (human red blood cells; peptide 100 μg/ml, 2% human RBCs (EDTA), 1 h) was “approximately 40%”.
In the case of `CC[C@H](C)[C@H](NC(=O)[C@H](CCCCN)NC(=O)[C@H](CC(=O)O)NC(=O)[C@H](CC(C)C)NC(=O)[C@H](CC(C)C)NC(=O)[C@H](CCC(N)=O)NC(=O)CNC(=O)[C@H](C)NC(=O)[C@H](CC(C)C)NC(=O)[C@H](CC(N)=O)NC(=O)[C@H](CCCCN)NC(=O)[C@H](C)NC(=O)[C@H](C)NC(=O)[C@H](CC(N)=O)NC(=O)[C@H](CCCCN)NC(=O)[C@@H](NC(=O)[C@@H](NC(=O)[C@H](CC(=O)O)NC(=O)[C@H](CCSC)NC(=O)[C@H](CC(C)C)NC(=O)CN)[C@@H](C)O)C(C)C)C(=O)N[C@@H](CCCCN)C(=O)N[C@H]1CSSC[C@@H](C(=O)O)NC(=O)CNC(=O)[C@H]([C@@H](C)O)NC(=O)[C@H]([C@@H](C)CC)NC(=O)[C@H](CCCCN)NC1=O` [PHNX-8] (H-GLMDTVKNAAKNLAGQLLDKIKCKITGC-OH; disulfide 23-28 (inferred); N-terminus and C-terminus assumed), the “growth inhibition in the screen (in words)” value (E. coli 4157 [1]; E. coli 4157) is reported as “showed activity”, the bacterial survival (E. coli 4157 [1]; antibiotic susceptible E. coli 4157) is reported as about 0% and the “growth inhibition in the screen (in words)” value (E. coli O157:H7 51659 [2]; peptide 100 μg/ml, MDR E. coli 51659) is reported as “showed activity”. For the same compound, the bacterial survival (E. coli O157:H7 51659 [2]; peptide 100 μg/ml, antibiotic resistant E. coli O157:H7 51659) was about 0%, the MIC (E. coli 4157 [3]; 4157) was 32 µg/mL (≈ 10.9 µM) and the MIC (S. aureus 33592) was “without any activity; also recorded: no activity”. For the same compound, the MIC (S. aureus BAA-1718) was “without any activity; also recorded: no activity” and the hemolysis (human red blood cells) was “higher hemolytic activity”.
With FGKLLKLGKGLGG [PHNX-2] the EC50 (S. aureus MRSA 33592 [4]) was “no activity” and the EC50 (E. coli O157:H7 51659 [5]) was “no activity”.
For FGKLLKLGKGLKG [PHNX-3], the EC50 (S. aureus MRSA 33592 [4]) was “no activity” and the EC50 (E. coli O157:H7 51659 [5]) was “no activity”.
FIGAIASYLKKFR [PHNX-6] showed an EC50 (S. aureus MRSA 33592 [4]) of 7.95 µg/mL.
For FLIKILKGGKGGK [PHNX-5], the EC50 (S. aureus MRSA 33592 [4]) was over 10 µg/mL and the hemolysis (human red blood cells) was “higher hemolytic activity”.
In the case of FLLKLGLGKKKLL [PHNX-4], the hemolysis (human red blood cells) is reported as “higher hemolytic activity”.
For GVVDIIKGAGKKFAKGLAGKIANKK [PHNX-7], the MIC (MDR E. coli 51659) was over 64 µg/mL, the EC50 (S. aureus MRSA 33592 [4]) was 2.09 µg/mL and the hemolysis (human red blood cells) was “higher hemolytic activity”.
For “KRFKKFFRKLKKSVKKRAKEFFKKPRVIGVSIPF [BF-CATH, reference compound]”, the bactericidal activity (E. coli O157:H7 51659 [2]) was 100%, the MIC (E. coli 4157 [3]; antibiotic susceptible E. coli 4157, Mueller Hinton Broth) was “strong antimicrobial activity” and the MIC (MDR E. coli 51659) was “strong antimicrobial activity”. For the same compound, the “previously reported antimicrobial activity level” value (E. coli ATCC 25922) was 2.3 µg/mL, the bactericidal activity (S. aureus MRSA 33592 [6]) was 100% and the MIC (S. aureus 33592) was “not very effective”. The MIC (S. aureus BAA-1718) was “not very effective”.
With “VRLIVAVRIWRR-NH2 (C-terminus assumed) [IDR-1018, reference compound]” the bactericidal activity (E. coli O157:H7 51659 [2]) was 100%, the bactericidal activity (S. aureus MRSA 33592 [6]) was 100% and the hemolysis (human red blood cells; [7]) was “negligible hemolysis”.
